Here are results for 13 molecules from EP4741392A1, “1H-PYRAZOLO[4,3-C]PYRIDINE COMPOUND, AND COMPOSITION THEREOF AND USE THEREOF” (Shenzhen TargetRx Co., Ltd., priority 2023, dated 2025).

What all share (test): Kinase activity inhibition assay (HTRF TK Kit), selectivity
Holding throughout (format): biochemical

In one assay the target is T1, EGFR (Homo sapiens, UniProt P00533).
T1 construct: purchased Carna 08-115
From the text:
(§1) In this assay, the HTRF TK Kit (Catalog No. 62TK0PEC) provided by Cisbio was used to detect the inhibitory activity of compounds on BTK kinase, BTK T474I kinase and BTK C481 S kinase and the selectivity of compounds relative to EGFR, ITK and TEC kinases.
(§2) Reagents and consumables: BTK kinase (Invitrogen, Catalog No. PV3587), BTK C481S (Carna, Product No. 08-547), BTK T474I(SignalChem Product No. B10-12HH), ITK (Cama, Product No. 08-181), EGFR (Cama, Product No. 08-115), TEC (Carna, Product No. 08-182), HTRF-TK kit (Cisbio, Product No. 62TK0PEC), MgCl2 (Sigma, Product No. M1028), MnCl2 (Sigma, Product No. M1787), DTT (Sigma, Product No. D0632), ATP (Sigma, Product No. A7699-1g), DMSO (Sigma, Product No. D2650), 384-well plate (PE, Product No. 6008280).
(§3) The entire operation steps were carried out on ice, and the total reaction volume was 10µL. A compound (4µL), substrate and ATP (4µL), and kinase (2µL) were added in sequence to a 384-well plate, and the plate was shaken for 30 seconds. The mixture was reacted at room temperature for an appropriate time, and then the detection reagent was added. The resulting mixture was reacted at room temperature for 1 hour, and then the plate was assayed with a microplate reader. The specific steps were as follows: • a) a 1 × kinase buffer solution required for the kinase assay was calculated according to the amount of the test compound, and prepared as needed; • b) 2.5 × working concentration of a compound was prepared, 100-fold gradient concentration solutions of a compound were diluted by 40 × to the desired concentration, respectively, mixed well, and added to each well at 4 µL per well; • c) 5 × working concentration of the substrate and ATP were prepared, mixed in a ratio of 1:1 before being added to the 384-well plate, and added to each well at 4 µL per well; • d) 5 × working concentration of a kinase was prepared, 2 µL of which was added to each well; • e) the plate was shaken on a microplate shaker for 30 seconds, sealed with a sealing membrane, and the mixture was reacted at room temperature for an appropriate time; • f) 4 × working concentration of streptavidin XL-665 and TK antibody-cryptate compound were prepared, mixed in a ratio of 1:1 before being added to the 384-well plate, and added to each well at 10 µL per well; • g) the mixture was reacted at room temperature for 1 hour, and then the plate was read; • h) the wells with only substrate, ATP and 1% DMSO added but no kinase were blank control wells, and the wells with only substrate, ATP, 1% DMSO and kinase were positive control wells.
(§4) Readings: The values of 620 nm (cryptate) and 665 nm (XL665) were read with a BioTek Synerg Neo2 microplate reader, the ratio of 665/620 for each well was calculated, and the data were exported.
(§5) Data analysis: IC50 was calculated using GraphPad Prism 7.0 software.
(§6) The IC50 (half-maximal inhibitory concentration) of the compound was obtained using the following nonlinear fitting formula: Y = Bottom + (Top−Bottom)/(1+10^(∧)((LogIC50−X)*HillSlope)) [formula] • X: Log value of the compound concentration • Y: Inhibition rate (% inhibition) • Top: Maximum response • Bottom: Baseline response • HillSlope: Slope of the curve
(§7) The formula for calculating kinase inhibition rate (inhibition rate %) was: [formula]

The next assay has as its target T2, TEC (Homo sapiens, UniProt P42680).
T2 construct: purchased Carna 08-182
T2 sequence (P42680 1-631): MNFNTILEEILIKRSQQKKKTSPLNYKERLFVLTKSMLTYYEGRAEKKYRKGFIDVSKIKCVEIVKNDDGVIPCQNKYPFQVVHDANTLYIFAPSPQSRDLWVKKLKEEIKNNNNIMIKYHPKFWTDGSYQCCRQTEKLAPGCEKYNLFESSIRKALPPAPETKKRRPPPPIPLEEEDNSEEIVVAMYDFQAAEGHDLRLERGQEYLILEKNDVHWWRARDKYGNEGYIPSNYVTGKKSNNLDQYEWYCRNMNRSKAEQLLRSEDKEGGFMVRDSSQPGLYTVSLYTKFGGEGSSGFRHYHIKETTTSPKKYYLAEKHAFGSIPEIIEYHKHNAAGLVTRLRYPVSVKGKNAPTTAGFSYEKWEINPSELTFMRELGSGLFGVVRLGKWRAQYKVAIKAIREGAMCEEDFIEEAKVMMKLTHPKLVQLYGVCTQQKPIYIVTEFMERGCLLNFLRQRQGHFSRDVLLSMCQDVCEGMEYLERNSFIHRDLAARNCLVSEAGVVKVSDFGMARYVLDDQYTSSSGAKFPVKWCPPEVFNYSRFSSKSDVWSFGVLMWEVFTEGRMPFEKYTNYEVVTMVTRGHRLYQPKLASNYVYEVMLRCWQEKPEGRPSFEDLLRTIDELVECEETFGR
From the text: as §1, §2, §3, §4, §5, §6, §7

The target in a further assay is T3, ITK (Homo sapiens, UniProt Q08881).
T3 construct: purchased Carna 08-181
T3 sequence (Q08881 1-620): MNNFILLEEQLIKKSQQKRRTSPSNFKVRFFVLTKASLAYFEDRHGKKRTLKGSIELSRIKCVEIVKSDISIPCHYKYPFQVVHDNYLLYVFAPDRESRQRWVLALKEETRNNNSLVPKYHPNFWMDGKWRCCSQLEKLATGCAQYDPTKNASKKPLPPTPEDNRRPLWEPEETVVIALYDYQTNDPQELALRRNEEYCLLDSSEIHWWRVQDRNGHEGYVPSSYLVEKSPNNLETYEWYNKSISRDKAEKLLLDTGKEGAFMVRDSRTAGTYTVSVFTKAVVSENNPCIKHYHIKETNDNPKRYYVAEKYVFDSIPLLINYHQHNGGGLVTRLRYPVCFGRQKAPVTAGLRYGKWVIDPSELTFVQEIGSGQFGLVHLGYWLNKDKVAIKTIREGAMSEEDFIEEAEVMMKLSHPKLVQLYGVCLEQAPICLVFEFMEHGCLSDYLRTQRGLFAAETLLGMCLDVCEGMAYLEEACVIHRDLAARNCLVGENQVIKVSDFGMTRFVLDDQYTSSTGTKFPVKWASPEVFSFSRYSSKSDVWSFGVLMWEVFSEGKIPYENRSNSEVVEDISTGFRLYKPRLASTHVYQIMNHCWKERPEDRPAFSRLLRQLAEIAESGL
From the text: as §1, §2, §3, §4, §5, §6, §7

T1 sequence (P00533 669-1210 limits assumed): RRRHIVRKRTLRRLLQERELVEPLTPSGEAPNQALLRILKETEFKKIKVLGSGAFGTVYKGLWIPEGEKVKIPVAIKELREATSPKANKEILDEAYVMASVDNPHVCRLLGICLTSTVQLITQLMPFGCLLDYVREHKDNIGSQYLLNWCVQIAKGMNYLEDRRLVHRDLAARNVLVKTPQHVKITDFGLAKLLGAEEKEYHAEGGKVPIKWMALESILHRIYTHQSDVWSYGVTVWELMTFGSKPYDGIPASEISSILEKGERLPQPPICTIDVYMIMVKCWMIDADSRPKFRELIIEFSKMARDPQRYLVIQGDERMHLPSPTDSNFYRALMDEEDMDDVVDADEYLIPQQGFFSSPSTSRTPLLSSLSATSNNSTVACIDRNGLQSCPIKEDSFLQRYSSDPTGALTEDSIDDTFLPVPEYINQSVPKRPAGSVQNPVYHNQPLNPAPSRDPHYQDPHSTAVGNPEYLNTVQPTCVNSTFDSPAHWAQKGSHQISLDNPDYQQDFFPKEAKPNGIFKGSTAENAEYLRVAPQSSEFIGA

On to `COc1ccc(F)cc1C(=O)NCc1ccc(-c2ncc(-c3ncc(C)cn3)c3[nH]nc(N)c23)cc1` [Example 39, N-(4-(3-amino-7-(5-methylpyrimidin-2-yl)-1H-pyrazolo[4,3-c]pyridin-4-yl)benzyl)-5-fluoro-2-methoxybenzamide], for which the results for the IC50 at EGFR, on TEC and on ITK were 50 to 500 nM, 5 to 50 nM and 50 to 500 nM, respectively.
Take `COc1ccc(F)cc1C(=O)NCc1ccc(-c2ncc(-c3ccc(OC(F)(F)F)cn3)c3[nH]nc(N)c23)cc1` [Example 41, N-(4-(3-amino-7-(5-(trifluoromethoxy)pyridin-2-yl)-1H-pyrazolo[4,3-c]pyridin-4-yl)benzyl)-5-fluoro-2-methoxybenzamide]: the IC50 lay in the range of 50 to 500 nM at EGFR, 5 to 50 nM at TEC and 50 to 500 nM at ITK.
As for `COc1ccc(F)cc1C(=O)NCc1ccc(-c2ncc(-c3ncc(C(F)(F)F)cn3)c3[nH]nc(N)c23)cc1` [Example 42, N-(4-(3-amino-7-(5-(trifluoromethyl)pyrimidin-2-yl)-1H-pyrazolo[4,3-c]pyridin-4-yl)benzyl)-5-fluoro-2-methoxybenzamide], the half-maximal inhibitory concentration (IC50) is over 500 nM on EGFR, 50 to 500 nM at TEC and over 500 nM on ITK.
In the case of `COc1ccc(F)cc1C(=O)NCc1ccc(-c2ncc(-c3ccc(C4COC4)cn3)c3[nH]nc(N)c23)cc1` [Example 43, N-(4-(3-amino-7-(5-(oxetan-3-yl)pyridin-2-yl)-1H-pyrazolo[4,3-c]pyridin-4-yl)benzyl)-5-fluoro-2-methoxybenzamide], the IC50 lay in the range of 5 to 50 nM on EGFR, 1 to 5 nM on TEC and 50 to 500 nM on ITK.
For `COc1ccc(F)cc1C(=O)NCc1ccc(-c2ncc(-c3cc4ncccn4n3)c3[nH]nc(N)c23)cc1` [Example 44, N-(4-(3-amino-7-(pyrazolo[1,5-a]pyrimidin-2-yl)-1H-pyrazolo[4,3-c]pyridin-4-yl)benzyl)-5-fluoro-2-methoxybenzamide] the same measures were 5 to 50 nM, 5 to 50 nM and 50 to 500 nM.
For `CCOC(=O)c1cnc2cc(-c3cnc(-c4ccc(CNC(=O)c5cc(F)ccc5OC)cc4)c4c(N)n[nH]c34)nn2c1` [Example 45, ethyl 2-(3-amino-4-(4-((5-fluoro-2-methoxybenzoylamino)methyl)phenyl)-1H-pyrazolo[4,3-c]pyridin-7-yl)pyrazolo[1,5-a]pyrimidine-6-carboxylate] the same measures were 50 to 500 nM, 50 to 500 nM and over 500 nM.
For `COc1ccc(F)cc1C(=O)NCc1ccc(-c2ncc(-c3ccn4nccc4n3)c3[nH]nc(N)c23)cc1` [Example 46, N-(4-(3-amino-7-(pyrazolo[1,5-a]pyrimidin-5-yl)-1H-pyrazolo[4,3-c]pyridin-4-yl)benzyl)-5-fluoro-2-methoxybenzamide] the same measures were 5 to 50 nM, 5 to 50 nM and over 500 nM.
`COc1ccc(F)cc1C(=O)NCc1ccc(-c2ncc(-c3ccc4cn[nH]c4n3)c3[nH]nc(N)c23)cc1` [Example 47, N-(4-(3-amino-7-(1H-pyrazolo[3,4-b]pyridin-6-yl)-1H-pyrazolo[4,3-c]pyridin-4-yl)benzyl)-5-fluoro-2-methoxybenzamide]: the figures for the IC50 at EGFR, on TEC and on ITK were 50 to 500 nM, 5 to 50 nM and over 500 nM, respectively.
For `COc1ccc(F)cc1C(=O)NCc1ccc(-c2ncc(-c3ccc(C(F)F)cn3)c3[nH]nc(N)c23)cc1` [Example 48, N-(4-(3-amino-7-(5-(difluoromethyl)pyridin-2-yl)-1H-pyrazolo[4,3-c]pyridin-4-yl)benzyl)-5-fluoro-2-methoxybenzamide], the IC50 on EGFR lay within 50 to 500 nM; on TEC, 5 to 50 nM; on ITK, 50 to 500 nM.
In the case of `COc1ccc(F)cc1C(=O)NCc1ccc(-c2ncc(-c3cn4ccnc4cn3)c3[nH]nc(N)c23)cc1` [Example 50, N-(4-(3-amino-7-(imidazo[1,2-a]pyrazin-6-yl)-1H-pyrazolo[4,3-c]pyridin-4-yl)benzyl)-5-fluoro-2-methoxybenzamide], the half-inhibitory concentration (IC50) at EGFR was 50 to 500 nM; on TEC, 5 to 50 nM; at ITK it was over 500 nM.
For `COc1ccc(F)cc1C(=O)NCc1ccc(-c2ncc(-c3ccc4nccn4n3)c3[nH]nc(N)c23)cc1` [Example 51, N-(4-(3-amino-7-(imidazo[1,2-b]pyridazin-6-yl)-1H-pyrazolo[4,3-c]pyridin-4-yl)benzyl)-5-fluoro-2-methoxybenzamide] the same measures were 50 to 500 nM, 5 to 50 nM and over 500 nM.
For `COc1ccc(F)cc1C(=O)NCc1ccc(-c2ncc(-c3ccc(C(=O)N4CCOCC4)cn3)c3[nH]nc(N)c23)cc1` [Example 52, N-(4-(3-amino-7-(5-(morpholine-4-carbonyl)pyridin-2-yl)-1H-pyrazolo[4,3-c]pyridin-4-yl)benzyl)-5-fluoro-2-methoxybenzamide] the same measures were 50 to 500 nM, 5 to 50 nM and 50 to 500 nM.
For `COc1ccc(F)cc1C(=O)NCc1ccc(-c2ncc(-c3ccc(C(=O)N4C[C@H](C)O[C@@H](C)C4)cn3)c3[nH]nc(N)c23)cc1` [Example 53, N-(4-(3-amino-7-(5-((2S,6S)-2,6-dimethylmorpholine-4-carbonyl)pyridin-2-yl)-1H-pyrazolo[4,3-c]pyridin-4-yl)benzyl)-5-fluoro-2-methoxybenzamide] the same measures were 50 to 500 nM, 5 to 50 nM and 50 to 500 nM.
